Assay results taken from US20090111759A1, “Synergistic Combination of Glutamate-and Gaba-Gated Chloride Agonist Pesticide and at Least One Vitamin E, Niacin, or Derivatives Thereof” (priority 2006, published 2009).

Assays:
Spodoptera exigua larvae [1] = experiment: whole plant or invertebrate; settings: read-out: Observed mortality (%)
Method: (§2) The efficacy of an Abamectin 18 g/l emulsifiable concentrate formulation (EC) was tested on Spodoptera exiqua larvae on Tradescani crassifolia leaves. The test on Spodoptera exigua was done as a dip-test where Tradescani crassifolia leaves were dipped in the various tests solutions and dried. Afterwards, each leaf was infested with 5 Spodoptera exigua larvae.
(§3) Besides testing the Abamectin 18 g/l EC formulation, Abamectin 18 g/l EC formulation was tested together with 4.5 g/l and 72 g/l nicotinamide. An EC formulation comprising nicotinamide was included in the test as well.

[2] = test system: Dysdercus cingulatus nymphs; experiment: Topical application of Abamectin/nicotinamide acetone solutions, LD50 (Example 7); type: in vivo; settings: sum of Abamectin and nicotinamide; mortality recorded 48 h after applying
Method: (§1) A range of Abamectin solutions in acetone was prepared. Similarly, a range of nicotinamide solutions was prepared. Mixed solutions of Abamectin and nicotinamide in acetone were prepared as well. Nymphs of Dysdercus cingulatus were treated topically with either an Abamectin acetone solution (2 μl), a nicotinamide acetone solution (2 μl) or mixed solutions (2 μl).
The Dysdercus cingulatus mortality was recorded 48 h after applying the products. Log dose-mortality curves were constructed for the Abamectin, the nicotinamide and for the mixed solutions. The LD50 values reflect the sum of Abamectin and nicotinamide (active ingredients) present at LD50.
From the observed LD50 values for Abamectin and nicotinamide expected LD50 values for the mixtures were calculated according to Wadley's formula.

[3] = test system: Dysdercus cingulatus nymphs; type: in vivo; settings: 2000 ng applied on each nymph; 24 h after applying
Method: A range of Abamectin solutions in acetone was prepared. Similarly, a range of tocopherol, all-rac alpha, solutions in acetone was prepared. Abamectin solution (2 μl), tocopherol solution (2 μl) or both were applied topically on nymphs of Dysdercus cingulatus. Abamectin was applied dorsally while tocopherol was applied ventrally. […] The mortality of the nymphs was recorded 24 h after applying the solutions.

Spodoptera exigua larvae [4] = settings: single ingredient, 10 ppm in tests solution
Method: as §2, §3

[5] = test system: Dysdercus cingulatus nymphs; experiment: Topical application of Abamectin/tocopherol acetone solutions, LD50 (Example 5); type: in vivo; settings: sum of Abamectin and tocopherol; mortality recorded 48 h after applying
Method: as §1, with “of tocopherol, all-rac alpha,” for “of nicotinamide”, “and tocopherol” for “and nicotinamide”, “a tocopherol” for “a nicotinamide”, “μl). The Dysdercus cingulatus mortality was recorded 48 h after applying the products.” for “μl).”
Log dose-mortality curves were constructed for the Abamectin and the tocopherol treatments. LD50 values based on the sum of Abamectin and tocopherol contents (ng active ingredient(s) per nymph) were calculated.
From the observed LD50 values for Abamectin and tocopherol expected LD50 values for the mixtures were calculated according to Wadley's formula.

[6] = test system: Dysdercus cingulatus nymphs; type: in vivo; settings: in total 20,000 ng/nymph applied dorsally; two replicates of ten nymphs
Method: Abamectin, Ivermectin and tocopherol solutions in acetone were prepared. Mixed solutions of either Abamectin or Ivermectin and tocopherol were also prepared. Nymphs of Dysdercus cingulatus were treated topically with Abamectin acetone solution (20,000 ng/nymph), Ivermectin acetone solution (20,000 ng/nymph), a tocopherol acetone solution (20,000 ng/nymph) or a solution containing Abamectin and tocopherol or Ivermectin and tocopherol in the ratio 1:3 (20,000 ng total/nymph). The solutions were applied dorsally on the nymphs.
The Dysdercus cingulatus mortality was followed over time and recorded. Log time-mortality curves were constructed for the Abamectin and Ivermectin solutions and for the mixtures with tocopherol. An LT50 value was calculated for each application.

Molecule | mortality at 10 ppm (Spodoptera exigua larvae [1]) [%] | LD50obs [2] | % Mortality for each ingredient [3] [%] | Observed mortality (%) (Spodoptera exigua larvae [4]) | LD50obs [5] | LT50 [6] [h]
NC(=O)c1cccnc1 [nicotinamide] | 0 | >20,000 ng AI(s) per nymph | – | – | – | –
Abamectin | – | 126 ng AI(s) per nymph | 74 | 10 | 1595 ng AI(s) per nymph | 5.3
